Values after ≈ are worked out from the molar mass of the structure shown.
Assays:
[1] = system: Aphidius rhopalosiphi; experiment: LR50; higher = less toxic; conditions: not reported; mortality
[2] = system: Anas platyrhynchos
[3] = system: Danio rerio; conditions: chronic
[4] = system: Rattus norvegicus
[5] = system: Apis mellifera; conditions: acute, mortality
[6] = system: Tagia sp.; conditions: chronic/long-term; growth
[7] = system: Oncorhynchus mykiss; conditions: acute; duration: 96 hours; mortality
[8] = system: Oryctolagus sp.; conditions: developmental; development
[9] = system: Pimephales promelas; conditions: chronic/long-term; reproduction
[10] = system: Bibionidae; conditions: chronic/long-term
[11] = system: Canidae; conditions: chronic; duration: 2 years; Dog Other; histopathology: nonneoplastic
[12] = system: Daphnia magna; conditions: chronic/long-term; duration: 21 days; reproduction
[13] = system: Folsomia candida; conditions: chronic/long-term; mortality
[14] = chronic; duration: 128 days; other

Compound: CCC(CC)Nc1c([N+](=O)[O-])cc(C)c(C)c1[N+](=O)[O-] [Pendimethalin]
- LR50 [1]: 1200 g/ha
- LD50 ([2]; acute, oral, unspecified, mortality): 1420 mg/kg-day
- NOEL ([2]; reproductive): 17.5 mg/kg-day
- NOEC [3]: 0.032 mg/L
- LD50 ([4]; acute, mortality): 3930 mg/kg-day
- NOAEL ([4]; reproduction developmental, body weight): 30 mg/kg-day
- LD50 ([5]; dermal): > 100 µg/piece
- LD50 ([5]; oral, unspecified): > 101 µg/piece
- NOEC [6]: 33.5 mg/kg
- LC50 [7]: 0.196 µg/mL (≈ 0.697 µM)
- NOAEL [8]: 30 mg/kg-day
- NOEC [9]: 0.0063 mg/L
- NOEC ([10]; duration: 28 days): 227 mg/kg
- NOEC ([10]; duration: 30 days): 0.082 mg/L
- NOAEL [11]: 12.5 mg/kg-day
- NOEC [12]: 0.0145 mg/L
- NOEC [13]: 193 mg/kg
- NOEC [14]: 0.00023 mg/L
